Data taken from ChEMBL document CHEMBL1136032, “Remarkable influence of the aromatic substructure in 9-methoxystrobilurin derivatives on their antifungal activity” (Bioorg Med Chem Lett, 2002).
Active and inactive are the calls of the source. No cut-off for these calls is given here.

Tested on: Aspergillus fumigatus
Test: Compound was tested for the antifungal activity against Aspergillus fumigatus (R-1301) at a concentration of 10 ug/disk; zone of inhibition was measured after 48 hr incubation.
Format: functional
Details: not given

Structure (SMILES) | Diameter of inhibition zone
C=CC(C)(C)O[C@H]1COc2ccc(/C=C/C(OC)=C(C)\C(=C/OC)C(=O)OC)cc2OC1(C)C | 10 mm
CO\C=C(C(=O)OC)/C(C)=C(\C=C\c1ccc(OC)cc1)OC | 29 mm

Tested on: Aspergillus fumigatus
Test: Compound was tested for the antifungal activity against Aspergillus fumigatus (R-1301) at a concentration of 0.1 ug/disk; zone of inhibition was measured after 48 hr incubation.
Format: functional
Details: not given

Structure (SMILES) | Diameter of inhibition zone
CO\C=C(C(=O)OC)/C(C)=C(\C=C\c1ccc(OC)cc1)OC | 4 mm

Tested on: Aspergillus fumigatus
Test: Compound was tested for the antifungal activity against Aspergillus fumigatus (R-1301) at a concentration of 0.1 ug/disk; zone of inhibition was measured after 48 hr incubation; +/- denotes slightly effective
Format: functional, organism-based
Details: not given

Structure (SMILES) | Diameter of inhibition zone
C=CC(C)(C)O[C@H]1COc2ccc(/C=C/C(OC)=C(C)\C(=C/OC)C(=O)OC)cc2OC1(C)C | Weak activity

Tested on: Aspergillus fumigatus
Test: Compound was tested for the antifungal activity against Aspergillus fumigatus (R-1301) at a concentration of 1 ug/disk; zone of inhibition was measured after 48 hr incubation.
Format: functional
Details: not given

Structure (SMILES) | Diameter of inhibition zone
C=CC(C)(C)O[C@H]1COc2ccc(/C=C/C(OC)=C(C)\C(=C/OC)C(=O)OC)cc2OC1(C)C | 8 mm
CO\C=C(C(=O)OC)/C(C)=C(\C=C\c1ccc(OC)cc1)OC | 18 mm

Tested on: Candida albicans
Test: Compound was tested for the antifungal activity against Candida albicans (IFO1594) at a concentration of 1 ug/disk; zone of inhibition was measured after 48 h incubation; incomplete inhibition observed
Format: functional
Details: not given

Structure (SMILES) | Diameter of inhibition zone
CO\C=C(C(=O)OC)/C(C)=C(\C=C\c1ccc(OC)cc1)OC | 27 mm

Tested on: Candida albicans
Test: Compound was tested for the antifungal activity against Candida albicans (IFO1594) at a concentration of 0.1 ug/disk; zone of inhibition was measured after 48 hr incubation; +/- denotes slightly effective
Format: functional, organism-based
Details: not given

Structure (SMILES) | Diameter of inhibition zone
CO\C=C(C(=O)OC)/C(C)=C(\C=C\c1ccc(OC)cc1)OC | Weak activity

Tested on: Candida albicans
Test: Compound was tested for the antifungal activity against Candida albicans (IFO1594) at a concentration of 0.1 ug/disk; zone of inhibition was measured after 48 h incubation; NE denotes not effective
Format: functional, organism-based
Details: not given

Structure (SMILES) | Diameter of inhibition zone
C=CC(C)(C)O[C@H]1COc2ccc(/C=C/C(OC)=C(C)\C(=C/OC)C(=O)OC)cc2OC1(C)C | inactive

Tested on: Candida albicans
Test: Compound was tested for the antifungal activity against Candida albicans (IFO1594) at a concentration of 10 ug/disk; zone of inhibition was measured after 48 hr incubation.
Format: functional
Details: not given

Structure (SMILES) | Diameter of inhibition zone
C=CC(C)(C)O[C@H]1COc2ccc(/C=C/C(OC)=C(C)\C(=C/OC)C(=O)OC)cc2OC1(C)C | 22 mm

Tested on: Candida albicans
Test: Compound was tested for the antifungal activity against Candida albicans (IFO1594) at a concentration of 10 ug/disk; zone of inhibition was measured after 48 hr incubation; incomplete inhibition observed
Format: functional
Details: not given

Structure (SMILES) | Diameter of inhibition zone
CO\C=C(C(=O)OC)/C(C)=C(\C=C\c1ccc(OC)cc1)OC | 33 mm

Tested on: Candida albicans
Test: Compound was tested for the antifungal activity against Candida albicans (IFO1594) at a concentration of 1 ug/disk; zone of inhibition was measured after 48 hr incubation.
Format: functional
Details: not given

Structure (SMILES) | Diameter of inhibition zone
C=CC(C)(C)O[C@H]1COc2ccc(/C=C/C(OC)=C(C)\C(=C/OC)C(=O)OC)cc2OC1(C)C | 17 mm

Tested on: Fusarium solani
Test: Compound was tested for the antifungal activity against Fusarium solani (R-2800) at a concentration of 1 ug/disk; zone of inhibition was measured after 48 hr incubation; incomplete inhibition observed
Format: functional
Details: not given

Structure (SMILES) | Diameter of inhibition zone
C=CC(C)(C)O[C@H]1COc2ccc(/C=C/C(OC)=C(C)\C(=C/OC)C(=O)OC)cc2OC1(C)C | 19 mm

Tested on: Fusarium solani
Test: Compound was tested for the antifungal activity against Fusarium solani (R-2800) at a concentration of 0.1 ug/disk; zone of inhibition was measured after 48 hr incubation; NE denotes not effective
Format: functional, organism-based
Details: not given

Structure (SMILES) | Diameter of inhibition zone
C=CC(C)(C)O[C@H]1COc2ccc(/C=C/C(OC)=C(C)\C(=C/OC)C(=O)OC)cc2OC1(C)C | inactive
CO\C=C(C(=O)OC)/C(C)=C(\C=C\c1ccc(OC)cc1)OC | inactive

Tested on: Fusarium solani
Test: Compound was tested for the antifungal activity against Fusarium solani (R-2800) at a concentration of 10 ug/disk; zone of inhibition was measured after 48 hr incubation; NE denotes not effective
Format: functional, organism-based
Details: not given

Structure (SMILES) | Diameter of inhibition zone
CO\C=C(C(=O)OC)/C(C)=C(\C=C\c1ccc(OC)cc1)OC | inactive

Tested on: Fusarium solani
Test: Compound was tested for the antifungal activity against Fusarium solani (R-2800) at a concentration of 10 ug/disk; zone of inhibition was measured after 48 hr incubation; incomplete inhibition observed
Format: functional
Details: not given

Structure (SMILES) | Diameter of inhibition zone
C=CC(C)(C)O[C@H]1COc2ccc(/C=C/C(OC)=C(C)\C(=C/OC)C(=O)OC)cc2OC1(C)C | 25 mm

Tested on: Fusarium solani
Test: Compound was tested for the antifungal activity against Fusarium solani (R-2800) at a concentration of 1 ug/disk; zone of inhibition was measured after 48 hr incubation; NE denotes not effective
Format: functional, organism-based
Details: not given

Structure (SMILES) | Diameter of inhibition zone
CO\C=C(C(=O)OC)/C(C)=C(\C=C\c1ccc(OC)cc1)OC | inactive

Tested on: MRC5
Test: Cytotoxicity against human diploid embryotic cell line (MRC-5)
Format: functional, cell-based
Details: Homo sapiens, MRC5

Structure (SMILES) | IC50
C=CC(C)(C)O[C@H]1COc2ccc(/C=C/C(OC)=C(C)\C(=C/OC)C(=O)OC)cc2OC1(C)C | 0.36 µM
CO\C=C(C(=O)OC)/C(C)=C(\C=C\c1ccc(OC)cc1)OC | 35 µM

Tested on: Penicillium citrinum
Test: Compound was tested for the antifungal activity against Penicillium citrinum (R-3703) at a concentration of 0.1 ug/disk; zone of inhibition was measured after 48 hr incubation; NE denotes not effective
Format: functional, organism-based
Details: not given

Structure (SMILES) | Diameter of inhibition zone
C=CC(C)(C)O[C@H]1COc2ccc(/C=C/C(OC)=C(C)\C(=C/OC)C(=O)OC)cc2OC1(C)C | inactive

Tested on: Penicillium citrinum
Test: Compound was tested for the antifungal activity against Penicillium citrinum (R-3703) at a concentration of 10 ug/disk; the diameter of each inhibition zone was measured after 48 hr incubation; NE denotes not effective
Format: functional, organism-based
Details: not given

Structure (SMILES) | Diameter of inhibition zone
C=CC(C)(C)O[C@H]1COc2ccc(/C=C/C(OC)=C(C)\C(=C/OC)C(=O)OC)cc2OC1(C)C | inactive

Tested on: Penicillium citrinum
Test: Compound was tested for the antifungal activity against Penicillium citrinum (R-3703) at a concentration of 10 ug/disk; zone of inhibition was measured after 48 h incubation.
Format: functional
Details: not given

Structure (SMILES) | Diameter of inhibition zone
CO\C=C(C(=O)OC)/C(C)=C(\C=C\c1ccc(OC)cc1)OC | 29 mm

Tested on: Penicillium citrinum
Test: Compound was tested for the antifungal activity against Penicillium citrinum (R-3703) at a concentration of 1 ug/disk; zone of inhibition was measured after 48 hr incubation.
Format: functional
Details: not given

Structure (SMILES) | Diameter of inhibition zone
CO\C=C(C(=O)OC)/C(C)=C(\C=C\c1ccc(OC)cc1)OC | 23 mm

Tested on: Penicillium citrinum
Test: Compound was tested for the antifungal activity against Penicillium citrinum (R-3703) at a concentration of 1 ug/disk; zone of inhibition was measured after 48 hr incubation; NE denotes not effective
Format: functional, organism-based
Details: not given

Structure (SMILES) | Diameter of inhibition zone
C=CC(C)(C)O[C@H]1COc2ccc(/C=C/C(OC)=C(C)\C(=C/OC)C(=O)OC)cc2OC1(C)C | inactive

Tested on: Penicillium citrinum
Test: Compound was tested for the antifungal activity against Penicillium citrinum (R-3703) at a concentration of 0.1 ug/disk; zone of inhibition was measured after 48 hr incubation.
Format: functional
Details: not given

Structure (SMILES) | Diameter of inhibition zone
CO\C=C(C(=O)OC)/C(C)=C(\C=C\c1ccc(OC)cc1)OC | 9 mm

Tested on: Saccharomyces cerevisiae
Test: Compound was tested for the antifungal activity against Saccharomyces cerevisiae (IAM4861) at a concentration of 0.1 ug/disk; zone of inhibition was measured after 48 hr incubation; +/- denotes slightly effective
Format: functional, organism-based
Details: not given

Structure (SMILES) | Diameter of inhibition zone
C=CC(C)(C)O[C@H]1COc2ccc(/C=C/C(OC)=C(C)\C(=C/OC)C(=O)OC)cc2OC1(C)C | Weak activity

Tested on: Saccharomyces cerevisiae
Test: Compound was tested for the antifungal activity against Saccharomyces cerevisiae (IAM4861) at a concentration of 0.1 ug/disk; zone of inhibition was measured after 48 hr incubation; incomplete inhibition observed
Format: functional
Details: not given

Structure (SMILES) | Diameter of inhibition zone
CO\C=C(C(=O)OC)/C(C)=C(\C=C\c1ccc(OC)cc1)OC | 28 mm

Tested on: Saccharomyces cerevisiae
Test: Compound was tested for the antifungal activity against Saccharomyces cerevisiae (IAM4861) at a concentration of 10 ug/disk; zone of inhibition was measured after 48 hr incubation.
Format: functional
Details: not given

Structure (SMILES) | Diameter of inhibition zone
C=CC(C)(C)O[C@H]1COc2ccc(/C=C/C(OC)=C(C)\C(=C/OC)C(=O)OC)cc2OC1(C)C | 25 mm

Tested on: Saccharomyces cerevisiae
Test: Compound was tested for the antifungal activity against Saccharomyces cerevisiae (IAM4861) at a concentration of 10 ug/disk; zone of inhibition was measured after 48 hr incubation; incomplete inhibition observed
Format: functional
Details: not given

Structure (SMILES) | Diameter of inhibition zone
CO\C=C(C(=O)OC)/C(C)=C(\C=C\c1ccc(OC)cc1)OC | 42 mm

Tested on: Saccharomyces cerevisiae
Test: Compound was tested for the antifungal activity against Saccharomyces cerevisiae (IAM4861) at a concentration of 1 ug/disk; zone of inhibition was measured after 48 hr incubation.
Format: functional
Details: not given

Structure (SMILES) | Diameter of inhibition zone
C=CC(C)(C)O[C@H]1COc2ccc(/C=C/C(OC)=C(C)\C(=C/OC)C(=O)OC)cc2OC1(C)C | 20 mm

Tested on: Saccharomyces cerevisiae
Test: Compound was tested for the antifungal activity against Saccharomyces cerevisiae (IAM4861) at a concentration of 1 ug/disk; zone of inhibition was measured after 48 hr incubation; incomplete inhibition observed
Format: functional
Details: not given

Structure (SMILES) | Diameter of inhibition zone
CO\C=C(C(=O)OC)/C(C)=C(\C=C\c1ccc(OC)cc1)OC | 36 mm
